row,Structure (SMILES),melting point [°C]
1,O=C(Cn1nc(Br)nc1Br)N1CCC(c2nc(C3=NOC(c4c(F)cccc4F)C3)cs2)CC1 (stereo unspecified),185 to 189
2,CCN1C(=O)C(C(=O)Nc2ccc(F)cc2F)c2cc(C(C)=O)ccc21 (stereo unspecified),160 to 161
3,CCCCc1ncc(CO)c(NCc2ccc(-c3ccccc3)c(-c3nnnn3C(c3ccccc3)(c3ccccc3)c3ccccc3)c2)n1,126 to 129
4,COc1cc(Nc2nccc(-c3ccc(NCCN4CCCC4)nc3)n2)cc(OC)c1OC,165 to 166
5,CCCCCCCCCCCCNC(=O)ON=C(C1=C(Br)C(=O)C(C)(C)O1)c1ccccc1,61.5 to 62.5
6,COCc1cc2c(s1)CCCc1cc(=O)n(-c3ccc(C)cc3)nc1-2,109 to 110
7,O=C(O)CCCOc1cccc(CCCCCCOc2ccc3c(c2C/C=C/c2ccccc2)CCCC3=O)c1CCC(=O)O,102 to 104
8,CNc1ccc(C(=O)N(CCN2CCC(C(=O)c3ccc(F)cc3)CC2)c2cccnc2)cc1,90 to 96
9,CC(C)(C)[Si](Oc1ccc(OCC2CO2)cc1)(c1ccccc1)c1ccccc1 (stereo unspecified),97 to 98
10,CC(C)(C)c1cc(Br)c2cc(C(C)(C)C)cc(Br)c2c1,226
11,COc1ccc2cc(-c3cc4ccccc4o3)ccc2c1,194 to 195
12,COC(=O)c1ccccc1C=C1C(=O)Nc2ccc(S(=O)(=O)NC(C)C)cc21,271 to 273
13,O=C(N1CCCCCC1)N1CC(Oc2cccc(C(F)(F)F)c2)C1,64.5 to 66
14,CN1c2ccccc2C(C#N)c2ccccc21,141 to 143
15,CCCCc1ncc(C=CC(=O)O)n1Cc1ccccc1Cl,178 to 179
16,CCN(CC)CC(=O)Nc1cccc(-c2cc(-c3ccc(F)cc3OCOC)nc(NC(=O)c3ccco3)c2C#N)c1,126 to 128
17,NC(=O)c1sc2nccc(NC3CCCCC3)c2c1N,244 to 247
18,O=C1CC2(C(=O)N1)c1ccccc1Oc1ccccc12,226 to 228
19,CSc1nn(C)c(=O)n1Cc1cc(-c2ccccc2)ccc1C,95.6
20,N#Cc1ccc(CC23CCCN2C(=O)N(c2cc(Cl)cc(-n4cccc4)c2)C3=O)cc1 (stereo unspecified),266
21,CC(=O)C(=[N+]=[N-])C(=O)NCCO,69 to 70
22,Cn1c(=O)ccc2cnc(NCCc3ccccn3)nc21,155 to 156
23,O=C(COc1ccc(Cl)cc1)c1ccccc1,81 to 86
24,CNC(=O)c1ccc(CN2CCN(c3nc(C)c(C(C)=O)s3)C2=O)cc1,173 to 175

row,Structure (SMILES),melting point [°C]
1,Cn1cc(C(=O)O)c(=O)c2c3cc(N4CCN(c5ccc(F)c(Cl)c5)CC4)c(Cl)c(F)c3ncc21,> 260
2,Cc1cc2c3c(c1)c1c(n3CCNC2)CCC1,168 to 170
3,O=S(=O)(Nc1ccc(Oc2ccc3cccnc3c2)cc1)c1ccc(F)cc1,175 to 178
4,COc1cc(COc2nn(-c3ccccc3)cc2/C=C/c2cnco2)ccc1OCc1nc(-c2ccco2)oc1C,137 to 138
5,Cn1c(COc2ccc(CC3SC(=O)N(C(c4ccccc4)(c4ccccc4)c4ccccc4)C3=O)cc2)nc2cncnc21 (stereo unspecified),55 to 65
6,CC(=O)OC1CC(OC(C)=O)C2(C)C(C1)C(Br)C(Br)C1C3CCC(C(C)CCCC(C)C)C3(C)CCC12 (stereo unspecified),155 to 156
7,CN1Cc2c(C#CC(C)(C)C)ncn2-c2cccc(Cl)c2C1=O,126 to 128
8,O=C1CC(c2ccccc2)Cc2[nH]ccc(=O)c21 (stereo unspecified),207 to 209
9,COc1nc(C)c(Nc2nc(Cl)cn([C@H](COC(=O)Nc3cccc(C#N)c3)C3CC3)c2=O)cc1C,206 to 207
10,NS(=O)(=O)c1ccc(-n2nc(CCCNC(=O)Nc3ccc(C(F)(F)F)cc3)cc2-c2ccccc2)cc1,185 to 186
11,O=C(O)C1COC(C(F)(F)F)(C(F)(F)F)O1 (stereo unspecified),62 to 63
12,CCCCCCCCCCc1ccc2cc(SC)c(OS(=O)(=O)C(F)(F)F)cc2c1,149 to 150
13,CC(C)(C)OC(=O)CN1C(=O)c2ccccc2S1(=O)=O,130 to 132
14,CCOC(=O)C=Cc1ccc(OC(C)C)c(OC)c1,103 to 104
15,COc1ccccc1-c1ccc(C[C@H](NC(=O)C(C)c2c(Cl)cccc2Cl)C(=O)O)cc1 (stereo partly specified),109 to 110
16,CCc1nc(-c2cc3[nH]c(=O)c(=O)[nH]c3cc2[N+](=O)[O-])c[nH]1,249 to 250
17,CN1C(=O)[C@H](NC(=O)C2Cc3ccccc3O2)N=C(c2ccccc2)c2ccccc21 (stereo partly specified),141 to 180
18,COc1ccc(-c2nc(O)c(-c3ccccc3)s2)cc1,218 to 221
19,"CCOCCCOC(C)Cc1ccc(-c2ccc(O)cc2)cc1 (single isomer, unassigned; (-))",53 to 55
20,CCC1(CC)CN(c2ncc(C(=O)N(C)c3cccc(C(F)(F)F)c3)c(N)n2)C(=O)N1,185 to 187
21,O=C(O)CCC/C=C/c1ccc(-c2ccccc2)cc1,107 to 109
22,CC(C)CC(NC(=O)c1cc(O)c2c(c1)C(=O)c1cccc(O)c1C2=O)C(=O)O (stereo unspecified),204 to 206
23,OCCN1CCN(CC2CCn3c(nc4ccccc43)S2)CC1 (stereo unspecified),68 to 70
24,N#Cc1ccc(COc2cccc(OCc3ccc4ccccc4n3)c2)cc1,112

row,Structure (SMILES),melting point [°C]
1,CCCCNS(=O)(=O)c1ccc(S(N)(=O)=O)cc1,164 to 167
2,Cc1ccc(S(=O)(=O)N2CCC[C@H]2C(=O)N2c3ccc(Cl)c(Cl)c3C[C@@H]2C)cc1,170 to 173
3,CC(C)c1sc2ncnc(N)c2c1-c1ccc(NC(=O)c2ccccc2)cc1,> 250
4,O=C(O)c1cccc(C(=O)O)c1[N+](=O)[O-],100 to 101
5,COc1ccc(CC2=C(C)N=NC2=O)cc1OC1CCCC1,186 to 187
6,CCc1cc2c(s1)SCc1cc(=O)n(-c3ccc(Cl)cc3)nc1-2,161 to 163
7,CCCc1nn(C)c2c(=O)[nH]c(-c3ccccc3OC)nc12,140 to 141
8,COc1ccc(CS[C@@H]2C[C@@H](COc3ccccc3)N(S(C)(=O)=O)C2)cc1,92 to 94
9,COc1cc(C)nc(NC(=O)NS(=O)(=O)c2cccc3c2S(=O)(=O)C(C)(C)S3(=O)=O)n1,191 to 200
10,COc1ccc(OCc2ccc3ccccc3n2)cc1C1(c2ccccc2)CC2CCC1C2 (stereo unspecified),138 to 139
11,CCCCCCCCn1nnnc1I,40
12,CCCOc1ccc(SC(C)(C)C)cc1C(N)=O,136 to 138
13,O=C(NOC(=O)c1ccc(Cl)cc1)OCc1ccccc1,97
14,CCCCCCCCCCCCCCCNC(=O)OCCOCCOC(=O)N(Cc1ccccn1)C(=O)OCC,52 to 53
15,COc1cccc(CN2CCN(CCCOc3ccc4c(C)cc(=O)[nH]c4c3)CC2)c1,149 to 150
16,O=S(=O)(Cl)c1cccc(-c2cccc(-c3nc(-c4ccc(C(F)(F)F)cc4)cc(C(F)(F)F)n3)c2)c1,176
17,CCOC(=O)C1=C(C(OCC)OCC)NC(C)=C(C(=O)OCc2ccccc2)C1c1ccccc1[N+](=O)[O-] (stereo unspecified),103 to 104
18,O=C(O)c1ncccc1OCc1ccc(Cl)cc1,144
19,C[C@H]1CC[C@H]2C(C)(C)[C@@H](O)[C@@H](OS(=O)(=O)c3ccccc3)C[C@]23Oc2c(c(O)cc4c2CNC4=O)C[C@]13C,142 to 144
20,Cc1c(C)c2c(c(C)c1O)CCC(C)(C)O2,85 to 88
21,CCCc1c(O[C@@H]2CCC[C@H](Sc3ccc(C(=O)CCC(=O)O)cc3)C2)ccc(C(C)=O)c1O (relative stereo),101 to 103
22,Cc1noc(NS(=O)(=O)c2ccccc2-c2ccc(CC(C)C)cc2NC=O)c1C,87 to 95
23,COC(=O)c1ccccc1OCCN1CCC(c2c[nH]c3ccccc23)CC1,124 to 125
24,CC(C(=O)N(C)C)n1ccc(-c2c(Cl)cccc2Cl)n1 (stereo unspecified),88 to 90

row,Structure (SMILES),melting point [°C]
1,CCS(=O)(=O)NC(=O)N1CC1C#N (stereo unspecified),70 to 73
2,O=c1n(Cc2ccccc2)c2cc(Cl)ccc2n1C1CCNCC1,128
3,Cc1cccc(Cl)c1N1C(=O)CON(C)C1=S,176 to 178
4,CC(C)(C)OC(=O)NC(Cc1ccccc1F)C(=O)N1CCSC1 (stereo unspecified),133 to 134
5,CCc1c(-c2ccc(OC)cc2)c2c3c(c4cc(OC)cc1n42)C(=O)OC3=O,249 to 251
6,Cc1cc(C)cc(Sc2[nH]c(C)nc2CO)c1,199 to 201
7,COc1ccc(Cl)c(S(=O)(=O)NC(=O)c2cn3cc(C(F)(F)F)cc(Br)c3n2)c1,191 to 192
8,CN(c1cccc2cc(C3=NCC(C)(CN4CCC5(CC4)OCCO5)S3)[nH]c12)S(=O)(=O)c1cccs1 (stereo unspecified),172 to 173
9,CCC(=O)N1CCC(NC(=O)Nc2ccccc2Cl)CC1,150 to 157
10,N#CC[C@@H](O)CC(=O)NN,134 to 136
11,O=C(c1ccccc1)c1ccc(OCCCOc2ccc(C(=O)c3ccccc3)cc2)cc1,146 to 148
12,Cc1ccnc(C)c1O,105 to 106
13,COc1ccc2c(c1)CC(C)C1C2C(C)CC2(C)C(O)CCC12 (stereo unspecified),130 to 131
14,O=C(O)c1cn(C2CC2)c2c(F)c(N3CCC(n4cc(-c5ccccc5)nn4)C3)c(F)cc2c1=O (stereo unspecified),241
15,CCSC(=O)CCS(=O)(=O)CC,35 to 36
16,Clc1cccc(Cl)c1N=C1NCCN1OCc1ccccc1,115 to 117
17,C=CCn1c(=O)n(-c2ccc3c(c2)OCO3)c2ncc([N+](=O)[O-])cc21,152 to 153
18,CC(C)(C)OC(=O)CN1C(=O)C(N)C1CCc1ccco1 (stereo unspecified),85 to 87
19,COc1ccc(C2=Cc3ccc(OCc4ccccc4)cc3OC2O)cc1 (stereo unspecified),138 to 139
20,CCCCS(=O)(=O)C1(CCCCN2CCC(N3Cc4ccccc4C3=O)CC2)c2ccccc2-c2ccccc21,130 to 132
21,CN(C)C(=O)CC(=O)c1ccc(C(=O)CC(=O)N(C)C)cc1,188 to 189
22,COC(=O)N(C)CCCC(=O)OC[C@@H]1CC(c2ccc(-c3ccc(N4C[C@H](Cn5ccnn5)OC4=O)cc3F)cn2)=NO1,135
23,O=C1COC(CNC(=O)c2cccnc2Oc2ccc(F)cc2)CN1 (stereo unspecified),157 to 159
24,COc1cc(COc2cc(/C=C/c3ccccn3)n(-c3ccccc3)n2)ccc1OCc1nc(-c2ccco2)oc1C,122 to 123

# — a melting point compilation (Tetko et al.; mined from patent text by program, amines drawn as free bases though some values may be those of a salt)
